Reference: PMC9223062, “Purification and Characterization of a Dark Red Skin Related Dimeric Polyphenol Oxidase from Huaniu Apples” (Foods, 2022)
One block for each compound: values may come before it.

Experiments:
[1] = test system: T1, dimeric PPO from Huaniu apple peel; experiment: spectrophotometric oxidation assay at […] nm, Lineweaver-Burk; format: biochemical, Malus domestica; details: pH 5.0 citrate phosphate buffer, 25 °C; abstract 1.17, b44 prints 1.16
T1 construct: gene PPO2; native, purified from fruit peel (ammonium sulfate, DEAE-sepharose, Sephadex G-200); soluble PPO; about 140 kDa by native-PAGE and SDS-PAGE, 61 kDa monomer by urea-SDS-PAGE, homodimer

[2] = test system: T1, dimeric PPO from Huaniu apple peel; experiment: spectrophotometric oxidation assay, Lineweaver-Burk; format: biochemical, Malus domestica; details: pH 5.0 citrate phosphate buffer, 25 °C
Excerpt: spectrophotometric oxidation assay, Lineweaver-Burk on dimeric PPO from Huaniu apple peel

Compound: Cc1ccc(O)c(O)c1 [4-methylcatechol]
Km [2]: 2470 µM

Compound: Oc1ccccc1O [catechol]
Km ([2]; text prints 0.60): 610 µM

Compound: Oc1cc(O)c2c(c1)O[C@H](c1ccc(O)c(O)c1)[C@@H](O)C2 [CT, (+)-catechin]
Km [2]: 4630 µM

Next, values leading:

Km [1]: 1170 µM
Compound: Oc1cc(O)c2c(c1)O[C@H](c1ccc(O)c(O)c1)[C@H](O)C2 [EC, (−)-epicatechin]

Km ([2]; text b44 prints 1.29, table value agrees with its Vmax/Km): 2220 µM
Compound: O=C(/C=C/c1ccc(O)c(O)c1)O[C@@H]1C[C@](O)(C(=O)O)C[C@@H](O)[C@H]1O [chlorogenic acid]
